The text below walks through data of ChEMBL document CHEMBL4308885, “The development of myeloperoxidase inhibitors” (Bioorg Med Chem Lett, 2019).

In test [1] the target is T1, Myeloperoxidase (Homo sapiens, UniProt P05164).
T1 sequence (P05164 whole entry): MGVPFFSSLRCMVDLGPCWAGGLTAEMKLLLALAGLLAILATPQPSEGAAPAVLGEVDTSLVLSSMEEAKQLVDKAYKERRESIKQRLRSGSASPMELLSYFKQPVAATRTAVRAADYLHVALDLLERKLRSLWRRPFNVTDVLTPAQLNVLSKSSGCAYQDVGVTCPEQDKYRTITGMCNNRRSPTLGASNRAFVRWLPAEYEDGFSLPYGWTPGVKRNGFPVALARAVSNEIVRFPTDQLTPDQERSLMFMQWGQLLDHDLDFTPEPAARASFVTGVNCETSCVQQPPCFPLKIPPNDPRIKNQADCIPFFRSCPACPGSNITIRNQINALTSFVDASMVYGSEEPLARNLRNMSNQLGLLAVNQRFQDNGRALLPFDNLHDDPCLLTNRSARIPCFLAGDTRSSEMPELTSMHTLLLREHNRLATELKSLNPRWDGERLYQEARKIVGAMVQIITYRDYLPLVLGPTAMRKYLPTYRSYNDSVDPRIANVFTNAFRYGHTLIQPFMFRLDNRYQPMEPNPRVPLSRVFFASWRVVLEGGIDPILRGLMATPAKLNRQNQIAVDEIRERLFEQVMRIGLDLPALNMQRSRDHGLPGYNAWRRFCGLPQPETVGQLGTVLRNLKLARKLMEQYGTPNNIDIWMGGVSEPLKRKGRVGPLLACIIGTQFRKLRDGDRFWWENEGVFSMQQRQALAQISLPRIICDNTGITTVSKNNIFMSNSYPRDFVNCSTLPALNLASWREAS
As to the kind of experiment: Inhibition of MPO (unknown origin).

The target in test [2] is T2, Myeloperoxidase (Homo sapiens) (UniProt P05164).
T2 sequence (whole entry): T1 sequence (P05164 whole entry)
As to the kind of experiment: Inhibition of MPO in human neutrophils at 10'4 M using H2O2 as substrate measured for 30 secs in presence of o-dianisidine hydrochloride by spectrophotometric method relative to control.

Test [3] deals with T2, Myeloperoxidase (Homo sapiens). As to the kind of experiment: Inhibition of MPO in human neutrophils assessed as reduction in PMA-stimulated HOCl production at 1 uM relative to control.
For test [4], the target named is T1, Myeloperoxidase. As to the kind of experiment: Inhibition of MPO in human neutrophils using H2O2 as substrate measured after 5 mins.
The target of test [5] is T1, Myeloperoxidase. As to the kind of experiment: Inhibition of MPO (unknown origin) using H2O2 as substrate.

Take `Nc1ccc(S(=O)(=O)c2ccc(N)cc2)cc1` [DAPSONE]: the IC50 at Myeloperoxidase [1] is 420 nM. Take `O=c1c(O)c(-c2ccc(O)c(O)c2)oc2cc(O)cc(O)c12`: the inhibition in test [2] came to 100%. On to `O=c1[nH]c(=S)n(C[C@H]2CCCO2)c2nc[nH]c12`, for which, in test [3], the inhibition came to 90%. At Myeloperoxidase [4], `NNC(=O)c1ccc(O)cc1` returned a concentration for half-maximal inhibition (IC50) of 2000 nM.

As for `CC(C)OCCn1c(=S)[nH]c(=O)c2[nH]ccc21`, the IC50 at Myeloperoxidase [1] is 630 nM. `CC(=O)Oc1ccccc1C(=O)O` [ASPIRIN] gave an IC50 against Myeloperoxidase [1] of 200000 nM. As to `N[C@@H](Cc1c[nH]c2ccccc12)C(=O)O` [TRYPTOPHAN], the IC50 on Myeloperoxidase [5] worked out at 2250 nM.

At Myeloperoxidase [5], `COc1ccc2[nH]cc(CCNC(C)=O)c2c1` [MELATONIN] displayed an IC50 of 3000 nM.
